What all share (format): cell-based
In one test the test system is RSV A2. Put plainly: RSV NHBE EC50 (RSV A2 antiviral assay in NHBE cells). The conditions noted are these: read-out: RSV NHBE EC50. An outline of the steps:
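NHBE cells (7,500/well, passage ≤6) given 3-fold serially diluted compound (0.05% DMSO final), then infected with RSV A2 at 1×10^4.5 tissue culture infectious doses/mL. After 4 days at 37 °C, viability measured by CellTiter-Glo luminescence at 25 °C.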

The next test concerns HRV16. Put plainly: HRV16 HeLa EC50 (cytopathic effect in H1-HeLa cells). The conditions noted are these: read-out: HRV16 HeLa EC50. Summed up: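 H1-HeLa cells seeded one day before, given 3-fold serial compound dilutions in triplicate just prior to infection with pre-titrated virus. Incubated 96 h at 33 °C/5% CO2; protection from cytopathic effect read as viability by CellTiter-Glo luminescence, normalised to infected untreated (0%) and uninfected (100%) controls.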

Another test relates to DENV2 replicon. Put plainly: DENV-2 Huh-7 Rep EC50 (replicon luminescence). An outline of the steps:
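Huh-7 cells carrying a DENV2 replicon, 5,000 cells/well, were incubated with dosed compounds for 48 h at 37° C. EnduRen live-cell substrate was added 1.5 h before luminescence reading. EC50 came from dose-response against DMSO-only wells.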
Background: Replicon systems follow genome replication, usually without infectious particles.

Test [1] has as its system Dengue serotype 2 New Guinea C (NGC) strain. Put plainly: DENV-2 Huh-7 EC50 (qPCR in Huh7 cells). As for the experimental part:
Huh7 (Human hepatocarcinoma 7) cells were maintained in 10% FCS-containing DMEM complete media. On the day of the assay, cells were trypsinized (0.1% Trypsin-EDTA), washed and infected for 2 hours in serum-free DMEM with Dengue serotype 2 New Guinea C (NGC) strain at MOI=0.1 with gentle agitation at 37° C. After 2 hours, cells were washed with serum-free media and suspended in 10% FCS-containing DMEM (Gibco, supplemented with sodium pyruvate, NEAA, Penicillin-Streptomycin). 10^5 cells were plated in triplicate in 96-well plates with compounds dispensed at graded doses (Hewlett-Packard D300 Digital Dispenser). All wells were normalized to 0.25% DMSO. At 48 hours, cells were washed with 1×PBS and all supernatants removed. Total RNA was extracted using RNEasy 96 plates (Qiagen) and used to generate first-strand cDNA using XLT cDNA 5× Supermix (QuantaBio). cDNA was used as a template in a Taqman qPCR duplex reaction specific to DENV2 viral and GAPDH gene expression. EC50 values were determined using Prism Graphpad software, with normalization to a positive control and no compound negative control wells.
In general terms: Quantitative PCR measures a nucleic acid by following its amplification.

For the next test, the system named is RSV strain A2. Kind of test: microbe, parasite or virus in culture. The conditions noted are these: Table 3, HEp-2 cells, RSV A2, 4 days, read-out: RSV HEp-2 EC50. Summed up: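 Cytopathic-effect protection assay: HEp-2 cells (50,000/mL) infected with pre-titered RSV A2 onto 3-fold serial compound dilutions, incubated 4 days at 37° C. Cell viability read by CellTiter-Glo luminescence; percent inhibition derived against 0% and 100% virus-inhibition controls.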

Another test addresses HCV Rep 1B. Put plainly: HCV Rep 1B EC50 (replicon luciferase). The conditions noted are these: Table 4; replicon cells, 3 days; read-out: HCV Rep 1B EC50. As for the experimental part: (§1) Compounds were serially diluted in ten steps of 1:3 dilutions in 384-well plates. All serial dilutions were performed in four replicates per compound within the same 384-well plate. […] To each well of a black polystyrene 384-well plate (Greiner Bio-one, Monroe, NC), 90 μL of cell culture medium (without Geneticin) containing 2000 suspended HCV replicon cells was added with a Biotek μFlow workstation. For compound transfer into cell culture plates, 0.4 μL of compound solution from the compound serial dilution plate was transferred to the cell culture plate on a Biomek FX workstation. The DMSO concentration in the final assay wells was 0.44%. The plates were incubated for 3 days at 37° C. with 5% CO2 and 85% humidity. The HCV replicon assay was a multiplex assay, able to assess both cytotoxicity and antireplicon activity from the same well. The CC50 assay was performed first. The media in the 384-well cell culture plate was aspirated, and the wells were washed four times with 100 μL of PBS each, using a Biotek ELX405 plate washer. A volume of 50 μL of a solution containing 400 nM calcein AM (Anaspec, Fremont, CA) in 1×PBS was added to each well of the plate with a Biotek μFlow workstation. The plate was incubated for 30 min at room temperature before the fluorescence signal (excitation 490 nm, emission 520 nm) was measured with a Perkin-Elmer Envision plate reader. The EC50 assay was performed in the same wells as the CC50 assay. The calcein-PBS solution in the 384-well cell culture plate was aspirated with a Biotek ELX405 plate washer. A volume of 20 μL of Dual-Glo luciferase buffer (Promega, Madison, WI) was added to each well of the plate with a Biotek μFlow Workstation. The plate was incubated for 10 min at room temperature. A volume of 20 μL of a solution containing a 1:100 mixture of Dual-Glo Stop & Glo substrate (Promega, Madison, WI) and Dual-Glo Stop & Glo buffer (Promega, Madison, WI) was added to each well of the plate with a Biotek μFlow Workstation. The plate was then incubated at room temperature for 10 min before the luminescence signal was measured with a Perkin-Elmer Envision Plate Reader.

The next test concerns the target HCV Rep 2A. Kind of test: HCV Rep 2A EC50 (replicon luciferase). The conditions noted are these: Table 4; replicon cells, 3 days; read-out: HCV Rep 2A EC50. As for the experimental part: as §1
Where [2] appears, read: Table 3, NHBE cells, RSV A2, 4 days.
[3] abbreviates: Table 3, Huh-7 DENV2 replicon cells, 48 hours, read-out: DENV-2 REP Huh7 EC50.
Where [4] appears, read: human respiratory syncytial virus, HEp-2, 96 h.
[5] abbreviates: human respiratory syncytial virus, NHBE, 96 h, Table 3, NHBE cells, RSV A2, 4 days.
The mark [6] stands for this setting: 96 h, Table 3, H1-HeLa cells, 96 h.
[7] abbreviates: Dengue virus, DENV2, Huh-7, 48 h, read-out: DENV-2 REP Huh7 EC50.

Like-named read-outs stand apart in the source and are kept apart here. A value given as a limit tells only on which side of the number the result lay.

In general, EC50 refers to the concentration that produces a half-maximal response. In the case of `CCOC(=O)[C@H](C)N[P@](=O)(OC[C@@]1(C#N)O[C@@H](c2ccc3c(N)ncnn23)[C@H](O)[C@@H]1O)Oc1ccccc1` [Example 29, Ethyl ((S)-(((2R,3S,4R,5S)-5-(4-aminopyrrolo[2,1-f][1,2,4]triazin-7-yl)-2-cyano-3,4-dihydroxytetrahydrofuran-2-yl)methoxy)(phenoxy)phosphoryl)-L-alaninate], the EC50 came to 932 nM in the test with RSV A2 (human respiratory syncytial virus, NHBE, Table 5 comparative activity, 2',3'-OH vs -OC(O)iPr); 678 nM in the test on HRV16 (HeLa, Table 5 comparative activity, 2',3'-OH vs -OC(O)iPr); 36100 nM in the test on DENV2 replicon (Dengue virus, DENV2, Huh-7, read-out: DENV Rep EC50); 1880 nM in test [1] (Dengue virus, Huh-7, Table 5 comparative activity, 2',3'-OH vs -OC(O)iPr, read-out: DENV Huh7 EC50).

In the case of `CCC(=O)O[C@H]1[C@H](c2ccc3c(N)ncnn23)O[C@](C#N)(CO[P@](=O)(N[C@@H](C)C(=O)OCC2CC2)Oc2ccccc2)[C@H]1OC(=O)CC` [Example 100], the EC50 in the test with RSV strain A2 turned out to be 58 nM; in the test on RSV A2 (setting [2]) it was 13 nM; in the test on HRV16 (Table 3, H1-HeLa cells, 96 h) it was 147 nM; in the test on DENV2 replicon (setting [3]) it was 18800 nM; in test [1] (Table 3, Huh7 cells, 48 hours, read-out: DENV-2 Huh7 EC50), 1130 nM.

Turning to `CC(C)C(=O)O[C@H]1[C@H](c2ccc3c(N)ncnn23)O[C@](C#N)(COP(=O)(N[C@@H](C)C(=O)OC2COC2)Oc2ccccc2)[C@H]1OC(=O)C(C)C` (single isomer, unassigned) [Example 185], the EC50 in the test with RSV strain A2 is 26 nM; on HCV Rep 1B, 217 nM; on HCV Rep 2A, 730 nM.

On to `CCOC(=O)[C@H](C)NP(=O)(N[C@@H](C)C(=O)OCC)OC[C@@]1(C#N)O[C@@H](c2ccc3c(N)ncnn23)[C@H](OC(=O)CC)[C@@H]1OC(=O)CC` [Example 124, ((2R,3S,4R,5S)-5-(4-aminopyrrolo[2,1-f][1,2,4]triazin-7-yl)-2-cyano-3,4-dipropionatetetrahydrofuran-2-yl)methyl bis-ethyl L-alaninate phosphate], for which the EC50 in the test on RSV strain A2 (setting [4]) is 2100 nM; in the test on RSV A2 (setting [5]), 150 nM; in the test with HRV16 (setting [6]) it was 8390 nM; in the test on DENV2 replicon (Dengue virus, DENV2, Huh-7, 48 h, read-out: DENV-2 REP Huh7 EC50, Table 3, Huh-7 DENV2 replicon cells, 48 hours), greater than 50000 nM.

In the case of `CCC(=O)O[C@H]1[C@H](c2ccc3c(N)ncnn23)O[C@](C#N)(CO[P@](=O)(N[C@@H](C)C(=O)OC2CCC2)Oc2ccccc2)[C@H]1OC(=O)CC` [Example 196, (2R,3S,4S,5S)-5-(4-aminopyrrolo[2,1-f][1,2,4]triazin-7-yl)-2-cyano-2-((((R)-(((S)-1-cyclobutoxy-1-oxopropan-2-yl)amino)(phenoxy)phosphoryl)oxy)methyl) tetrahydrofuran-3,4-diyl dipropionate], the EC50 came out at 42 nM in the test on RSV strain A2; 27 nM in the test with RSV A2 (setting [2]); 96 nM in the test on HRV16 (Table 3, H1-HeLa cells, 96 h); 1960 nM in the test on DENV2 replicon (setting [3]).

For `CC(=O)O[C@H]1[C@H](c2ccc3c(N)ncnn23)O[C@](C#N)(CO[P@@](=O)(N[C@@H](C)C(=O)OCC2CC2)Oc2ccccc2)[C@H]1OC(C)=O` [Example 102], the EC50 in the test with RSV strain A2 came out at 178 nM; with RSV A2 (setting [2]), 18 nM; in the test on HRV16 (Table 3, H1-HeLa cells, 96 h), 526 nM; in the test with DENV2 replicon (setting [3]), 39100 nM.

For `CC(C)OC(=O)[C@H](C)N[P@](=O)(OC[C@@]1(C#N)O[C@@H](c2ccc3c(N)ncnn23)[C@H](OC(=O)CC(C)(C)O)[C@@H]1OC(=O)CC(C)(C)O)Oc1ccccc1` [Example 152, (2R,3S,4S,5S)-5-(4-aminopyrrolo[2,1-f][1,2,4]triazin-7-yl)-2-cyano-2-((((S)-(((S)-1-isopropoxy-1-oxopropan-2-yl)amino)(phenoxy)phosphoryl)oxy)methyl) tetrahydrofuran-3,4-diyl bis(3-hydroxy-3-methylbutanoate)], the EC50 in the test on RSV strain A2 (setting [4]) is 2930 nM; in the test on RSV A2 (setting [5]), greater than 5000 nM; in the test on HRV16 (setting [6]), greater than 50000 nM; in the test on DENV2 replicon (setting [7]) it was greater than 50000 nM.

For the compound `CO[C@H](C)C(=O)Nc1ncnn2c([C@@H]3O[C@](C#N)(CO[P@@](=O)(N[C@@H](C)C(=O)OC(C)C)Oc4ccccc4)[C@@H](OC(=O)[C@@H](C)OC)[C@H]3OC(=O)[C@@H](C)OC)ccc12` [Example 155, (2R,3S,4S,5S)-2-cyano-2-((((S)-(((S)-1-isopropoxy-1-oxopropan-2-yl)amino)(phenoxy)phosphoryl)oxy)methyl)-5-(4-((R)-2-methoxypropanamido)pyrrolo[2,1-f][1,2,4]triazin-7-yl)tetrahydrofuran-3,4-diyl (2R,2′R)-bis(2-methoxypropanoate)], the EC50 with RSV strain A2 (setting [4]) was found to be 437 nM; in the test with RSV A2 (setting [5]), 294 nM; in the test with HRV16 (setting [6]), 2680 nM; in the test on DENV2 replicon (setting [7]), 29200 nM.

For `CCC(=O)OC1[C@H](c2ccc3c(N)ncnn23)O[C@](C#N)(COP(=O)(N[C@@H](C)C(=O)OCC2CCOCC2)Oc2ccccc2)[C@H]1OC(=O)CC` (stereo in doubt) [Example 107, (2R,3S,4R,5S)-5-(4-aminopyrrolo[2,1-f][1,2,4]triazin-7-yl)-2-cyano-2-((((((S)-1-oxo-1-((tetrahydro-2H-pyran-4-yl)methoxy)propan-2-yl)amino)(phenoxy)phosphoryl)oxy)methyl)tetrahydrofuran-3,4-diyl dipropionate], the EC50 came out at 98 nM in the test with RSV strain A2 (setting [4]), 31 nM with RSV A2 (setting [5]), 388 nM with HRV16 (setting [6]) and 22400 nM in the test with DENV2 replicon (setting [7]).

Turning to `CC(C)CCC(=O)O[C@H]1[C@H](c2ccc3c(N)ncnn23)O[C@](C#N)(CO[P@@](=O)(N[C@@H](C)C(=O)OC2CCCCC2)Oc2ccccc2)[C@H]1OC(=O)CCC(C)C` [Example 78, (2R,3S,4S,5S)-5-(4-aminopyrrolo[2,1-f][1,2,4]triazin-7-yl)-2-cyano-2-((((S)-(((S)-1-(cyclohexyloxy)-1-oxopropan-2-yl)amino)(phenoxy)phosphoryl)oxy)methyl) tetrahydrofuran-3,4-diyl bis(4-methylpentanoate)], the EC50 turned out to be 1350 nM in the test on RSV strain A2 (setting [4]), 710 nM with RSV A2 (setting [5]), 6520 nM with HRV16 (setting [6]) and 31800 nM in the test with DENV2 replicon (setting [7]).

The record behind these values is patent US12264173B2 (GILEAD SCIENCES, INC., priority 2020, dated 2025).
